For four compounds, IC50 results are on record in publication PMC11064044, “Synthesis and Characterization of Piano-Stool Ruthenium(II)–Arene Complexes of Isatin Schiff Bases: Cytotoxicity and DNA Intercalation” (ACS Omega, 2024).

Assay [1] relates to PC-3 (human prostate cancer). Kind of assay: MTT cell viability assay, PC-3. The class given is cell-based. The following applies: 72 h. For orientation: Tetrazolium assays rely on reduction of a dye to a coloured formazan, in cell work by metabolically active cells.
Protocol: (§1) HEPG2 (ATCC-HB-8065), MCF-7 (ATCC-CRL-3435), PC-3 (ATCC-CRL-1435), and HEK-293 (ATCC-CRL-1573) cells were purchased from American Type Culture Collection (ATCC). Human cancer cells and embryonic kidney cells were maintained in Roswell Park Memorial Institute (RPMI) media supplemented with 10% fetal bovine serum and 1% penicillin–streptomycin solution in a 37 °C incubator with 5% CO2.
(§2) The cell viability was assessed by using an MTT assay. MTT was purchased from Sigma and prepared in phosphate-buffered saline (5 mM). […] After incubation, 20 μL of MTT solution was added to each well and incubated at 37 °C for an additional 4h. Finally, the MTT solution was removed, and 200 μL of DMSO was added to each well. The absorbance was measured at 590 nm by using a spectrometer (Tecan). The IC50 values were calculated from the MTT viability data using the software CalcuSyn (Biosoft).
In assay [2] the test system is MCF-7 (human breast cancer). Kind of assay: MTT cell viability assay, MCF-7. The assay is classed as cell-based.
Protocol: as §1, §2
Assay [3] deals with HEPG2 (hepatocellular carcinoma). Kind of assay: MTT cell viability assay, HEPG2. The assay is classed as cell-based, human.
Protocol: as §1, §2
Assay [4] has as its system HEK-293 (human embryonic kidney). Kind of assay: MTT cell viability assay, HEK-293. The class given is cell-based.
Protocol: as §1, §2

`N.N.[Cl][Pt][Cl]` [cisplatin, reference compound]: the IC50 in assay [1] was 18.5 ± 0.7 µM; in assay [2] (72 h), 20.8 ± 2.3 µM; in assay [3] (72 h) it was 22.2 ± 0.5 µM; in assay [4] (72 h) it was 10.7 ± 0.8 µM.
As to `CCCCN1C(=O)/C(=N/c2ccccc2)c2ccccc21` [3b], the IC50 in assay [1] (Homo sapiens) came out at 58.1 ± 3.3 µM; in assay [2] (Homo sapiens, MCF7, 72 h), 52.6 ± 3.1 µM; in assay [3] (Homo sapiens, HepG2, 72 h) it was 43 ± 1.8 µM; in assay [4] (Homo sapiens, HEK293, 72 h), 61.9 ± 0.6 µM.
Take `CCCCN1C(=O)C(=O)c2ccccc21` [compound 2, N-butylisatin]: the IC50 in assay [1] (Homo sapiens) worked out at 58.2 ± 3.2 µM; in assay [2] (Homo sapiens, MCF7, 72 h) it was 100 ± 2.4 µM; in assay [3] (Homo sapiens, HepG2, 72 h), 226.5 ± 1.5 µM; in assay [4] (Homo sapiens, HEK293, 72 h), 127 ± 2.8 µM.
In the case of `CCCCN1C(=O)/C(=N/c2c(C)cc(C)cc2C)c2ccccc21` [3c], the IC50 in assay [1] (Homo sapiens) was determined as 58.4 ± 2 µM; in assay [2] (Homo sapiens, MCF7, 72 h), 27.2 ± 2.4 µM; in assay [3] (Homo sapiens, HepG2, 72 h), 3.9 ± 0.3 µM; in assay [4] (Homo sapiens, HEK293, 72 h), 26.9 ± 1.6 µM.

The IC50 is the midpoint of a concentration-inhibition curve.
